The values that follow come from ChEMBL document CHEMBL3988442, “University of Dundee, Small-Polar-MMV Screening Library” (2021).

One may read the pIC50 as the IC50 on a negative log10 scale, so that one unit is a factor of ten. For orientation: IC50 means the concentration at which inhibition is half-maximal. A lower IC50 goes with greater potency.

The nature of this assay: In vitro enzyme assay to detect hydrolysis of chlorophenol red-beta-D-[…] directly proportional to the number of Toxoplasma stably expressing beta-galactosidase. In kind it is functional, organism-based, Toxoplasma gondii. The following applies: for IC50: Toxoplasma gondii.

A value given as a limit tells only on which side of the number the result lay.

`CCN(CCO)Cc1ccc(Br)c2cccnc12`: the pIC50 is listed as 5.613 and the IC50 was 2.26 µM.
`NC1CCN(CC(F)F)CC1`: the IC50 was > 50.1 µM.
As to `CCN1CCc2nc(NC(=O)c3ccncc3)sc2C1`, the IC50 is > 50.1 µM.
Take `CCNC(=O)CN1CCCC(c2nccn2CC)C1` (stereo unspecified): the IC50 is > 50.1 µM.
Regarding `CCN1CC2(CC1=O)CN(Cc1ccoc1)CCN(C(=O)C(C)C)C2` (stereo unspecified), the IC50 was > 50.1 µM.
Same read-out and setting: as for `O=C(CN1CCN(C(=O)c2ccco2)CC1)NC1CC1`, the figure is > 50.1 µM.
On to `Cc1ccc(CN2CCC(C3CCNC3)CC2)nc1` (stereo unspecified), for which the 50% inhibitory concentration (IC50) was > 50.1 µM.
`CC(=O)N1C[C@@H](c2ccsc2)[C@@H]2CN(Cc3ccccc3C)CC[C@@H]21`: it took 18.9 µM to reach half-maximal inhibition (IC50).
In the case of `Cc1cc(C)n(CC2CCNCC2)n1`, the IC50 is > 50.1 µM.
Turning to `COc1ccc(C(=O)N(CCO)Cc2ccccc2)c(OC)n1`, the pIC50 is listed as < 4.3 and the IC50 is 29.2 µM.
Take `Cc1nccn1CCNc1cc(C2CC(O)C2)ncn1` (stereo unspecified): the IC50 is > 50.1 µM.
Same read-out and setting: as for `CCc1nnc(Nc2cc(C)nc(C3CN(C(=O)C(C)C)CCO3)c2)s1` (stereo unspecified), the figure is > 50.1 µM; as for `CC(C)(CO)NCC(O)c1cccc(F)c1` (stereo unspecified), > 50.1 µM.
With `CCOc1ncccc1C(=O)NCC(C)N1CCCC1` (stereo unspecified), the IC50 was > 50.1 µM.
With `CC(C)c1cc(CN(C)C(=O)C(C)N2CCc3ccccc3C2)no1` (stereo unspecified), the IC50 is > 50.1 µM.
Take `C1CN[C@@H]2CNC[C@@H]2C1`: the half-maximal inhibitory concentration (IC50) was > 50.1 µM.
Take `CC(C)CSc1nnc(CN2CCCC2=O)o1`: the IC50 is > 50.1 µM.
Consider `NC1CN(S(=O)(=O)c2ccc3c(c2)OCCO3)C1`, for which the IC50 was > 50.1 µM.
Take `CN1CCN(Cc2c(-c3ccco3)[nH]c3ncccc23)CC1`: the IC50 was > 50.1 µM.
The same measure, in the same setting: with `COCC(=O)NCc1nn(CCN2CCCC2)c(=O)c2ccccc12` the figure was 26.7 µM.
On to `CCC(=O)c1cccc(OC)n1`, for which the IC50 was > 50.1 µM.
Same read-out and setting: as for `CC1(C)CC(n2cccn2)C(C)(C)O1` (stereo unspecified), the figure is > 50.1 µM; as for `O=C(c1cccnc1)c1ncc[nH]1`, > 50.1 µM.
For the compound `CCN(CC)CCNc1nc(C(C)C)nc2c(C)nn(CC)c12`, the IC50 is > 50.1 µM.
Consider `CCNc1ccc(C(F)(F)F)cn1`, for which the IC50 was > 50.1 µM.
As for `Nc1cccnc1NCc1cccnc1`, the half-inhibitory concentration (IC50) is > 50.1 µM.
As to `Cc1[nH]c2ccccc2c1-c1ccnc(N[C@H](CO)CC(C)C)n1`, the IC50 was > 50.1 µM.
For the compound `CS(=O)(=O)Nc1nn(Cc2ccc(F)cc2)cc1Br`, the IC50 was > 50.1 µM.
`Cc1nn(C)c(C)c1CNC(=O)c1cc(NC(=O)C2CC2)n(C)n1`: the IC50 is > 50.1 µM.
`Cc1nc2c(c(NCc3ccc(N)nc3)n1)CCCC2`: the IC50 is > 50.1 µM.
Still for that read-out and setting: as for `CO[C@H]1[C@@H]2CC[C@H]1CN(c1nc(C)nc3ccsc13)C2`, the figure is 6.77 µM; as for `COc1cc(Br)c(CN)cc1OC`, > 50.1 µM.
Take `NCCc1cc(-c2ccncc2)[nH]n1`: the IC50 is > 50.1 µM.
`Cc1oc(-c2ccoc2)nc1CN1CCC[C@H]1CO`: inhibition was half-maximal at 4.96 µM (IC50).
`CC(=O)N1CC[C@@]2(C(=O)Nc3ccccc3)CCN(S(C)(=O)=O)CC[C@@H]12`: the IC50 was > 50.1 µM.
On to `CCNC(C)(C)C(=O)N(C)Cc1ccc(OC)c(F)c1`, for which the IC50 was > 50.1 µM.
On the same count and under the same terms, with `c1cnc(-c2nn3c(CN4CCOCC4)nnc3s2)cn1` the figure was > 50.1 µM; with `CSCC(CCO)NC(=O)c1cc(F)ccc1O` (stereo unspecified), > 50.1 µM.
Take `CCC(CC)C(O)CNC(=O)NCC1CC1` (stereo unspecified): the 50% inhibitory concentration (IC50) was > 50.1 µM.
The same measure, in the same setting: with `Cc1ccc(C)c(C(=O)N2CCC3(CCC(=O)N(CC(N)=O)C3)CC2)c1` the figure was > 50.1 µM; with `OC(CNC1CCSCC1)c1cccc(OCc2ccccc2)c1` (stereo unspecified), 17.2 µM.
In the case of `C[C@@H]1CN(C2CCN(c3ccccc3F)CC2)CC[C@]1(C)O`, the half-maximal inhibitory concentration (IC50) is > 50.1 µM.
Take `CCn1c(NCc2ccc(OC)cc2)nc2c(C)nn(C)c2c1=O`: the IC50 is > 50.1 µM.
Take `CC(=O)N1N=C(c2cccnc2)CC1c1ccco1` (stereo unspecified): the IC50 was > 50.1 µM.
As to `COCCNC(=O)Nc1cc(Cl)ccc1OC`, the half-maximal inhibitory concentration (IC50) is > 50.1 µM.
Regarding `NCCC(=O)Nc1ccccc1`, the IC50 was > 50.1 µM.
With `CCOCC(=O)N1CCCn2ccnc2C1C(C)C` (stereo unspecified), the half-inhibitory concentration (IC50) is > 50.1 µM.
As for `c1cc(SCCOCC2CCCO2)ccn1` (stereo unspecified), the IC50 is > 50.1 µM.
As for `c1ccc(CNc2ccncc2)nc1`, the IC50 is > 50.1 µM.
As for `Cc1ccc(NC(=O)CCCNC(=O)C2CC2)cc1`, the IC50 is > 50.1 µM.
`CCCc1nc(NCCCOC)c2c(n1)c(C)nn2CC`: the IC50 is 34 µM.
Take `CCOCC(C)OC(=O)c1ccnn1C` (stereo unspecified): the IC50 is > 50.1 µM.
`Cc1nc(N2CCN(C(=O)c3ccco3)CC2)c2c(n1)c(C)nn2C`: the pIC50 was 4.358 and the IC50 is > 50.1 µM.
As for `CC(C)CC(=O)N1CC[C@H]2N(C)CC[C@@]2(C(=O)Nc2ccccc2)CC1`, the IC50 is > 50.1 µM.
Take `CCc1cnc(CNC)s1`: the IC50 is > 50.1 µM.
Consider `NC(=O)C(Cc1ccccc1)NS(=O)(=O)Cc1ccccc1Cl` (stereo unspecified), for which the IC50 was > 50.1 µM.
`Cc1nc2cc(C3CCN(Cc4cccc(F)c4F)C3)nn2c(O)c1C` (stereo unspecified): it took 10.5 µM to reach half-maximal inhibition (IC50).
Turning to `CCCNC(=O)CCn1nc(C)cc1C`, the IC50 was > 50.1 µM.
For `COC(=O)c1cnc2c(c(C)nn2C)c1OC`, the IC50 is > 50.1 µM.
On the same count and under the same terms, as for `O=C(c1cc(=O)[nH][nH]1)N1CCCC2(CCC(=O)N(C3CCCC3)C2)C1` (stereo unspecified), the figure is > 50.1 µM; as for `CCc1nc(Nc2cccc(C(=O)NC)c2)c2c(n1)c(C)nn2CC`, > 50.1 µM; as for `Cc1ccc(C(=O)NCCN2CCOCC2)c(C)c1`, > 50.1 µM.
The compound `CCc1nc(C)cn1C(=O)Nc1ccccc1` had an IC50 of 5.1 µM.
As for `CC1CCC(NCCO)CC1` (stereo unspecified), the IC50 is > 50.1 µM.
For the compound `CN(C)c1ncc2c(n1)CN(C1CCSCC1)C2=O`, the IC50 was > 50.1 µM.
Turning to `O=C(N[C@H]1COC[C@@H]1N1CCCCC1)c1cnc[nH]1`, the IC50 was > 50.1 µM.
Turning to `NCCN1CCC(C(N)=O)CC1`, the IC50 is > 50.1 µM.
As for `Cc1cc(C(=O)Nc2cnn(CC(F)(F)F)c2)nc(N2CCOCC2)n1`, the half-inhibitory concentration (IC50) is > 50.1 µM.
Same read-out and setting: with `CC(C)CC1NCCNC1=O` (stereo unspecified) the figure was > 50.1 µM; with `Nc1c[nH]nc1-c1ccccn1`, > 50.1 µM; with `COCc1nn(CC(=O)c2cc(F)ccc2F)c(=O)o1`, > 50.1 µM.
In the case of `Cc1cc(C(=O)Nc2ccc3c(c2)CC(=O)N3)c(C)o1`, the IC50 was > 50.1 µM.
As to `OC[C@@H]1CCCN1Cc1ccc(F)c2cccnc12`, the IC50 is 3.76 µM.
On the same count and under the same terms, with `CS(=O)(=O)c1ccc(-c2cc(O)cc(CCC3CCCCN3)c2)cc1` (stereo unspecified) the figure was 16.6 µM.
Regarding `CCn1nc(C)c2nc(C(C)C)nc(NCCc3ccc(O)cc3)c21`, the pIC50 is reported as 4.521 and half-maximal inhibition (IC50) required 22.2 µM.
For `CCn1c(SCC(=O)O)nnc1C(C)NC(=O)c1ccc(Cl)cc1` (stereo unspecified), the IC50 was > 50.1 µM.
The compound `CCn1c(NCc2ccccc2)nc2c(C)nn(C)c2c1=O` showed a pIC50 of 4.457 and an IC50 of 22.7 µM.
Consider `CNCc1ccc(N)nc1`, for which the IC50 is > 50.1 µM.
On the same count and under the same terms, as for `CC(CN)C(=O)Nc1cn[nH]c1` (stereo unspecified), the figure is > 50.1 µM.
Consider `CC(=O)Nc1ncc(S(=O)(=O)Nc2ccc(C)cc2)s1`, for which the IC50 is > 50.1 µM.
`COCCN(Cc1ccccc1Cl)c1nc(CCN)nc2ccccc12` had a 50% inhibitory concentration (IC50) of 13 µM.
The same measure, in the same setting: with `O=C(CN1CCCc2cc(F)cc(F)c21)Nc1ccc(Br)cn1` the figure was 30.4 µM.
On the same count and under the same terms, with `O=C([C@@H]1CCO[C@@H]2CCN(Cc3ccc(F)cc3)C[C@H]21)N1CCCCO1` the figure was > 50.1 µM; with `Cn1cc(CN)c(C(F)(F)F)n1`, > 50.1 µM.
Turning to `CN(Cc1cccc(C#N)c1)Cc1ccnc(N)c1`, the IC50 is > 50.1 µM.
In the case of `Cc1c(C(=O)NCC2CCN(C)C2)n(C)c2c(C)cccc12` (stereo unspecified), the IC50 was > 50.1 µM.
Turning to `Cc1ncc(C(=O)N2C[C@@H]3CCCN[C@@H]3C2)c(C)n1`, the IC50 was > 50.1 µM.
Same read-out and setting: as for `NC1CCN(Cc2ccccc2)C1=O` (stereo unspecified), the figure is > 50.1 µM; as for `CS(=O)(=O)Nc1ccccc1CNC(=O)c1ccoc1`, > 50.1 µM.
As for `Cc1nc(N2CCN(c3ccccc3)CC2)c2c(n1)c(C)nn2C`, the IC50 is > 50.1 µM.
For the compound `CSCCC1c2nc[nH]c2CCN1Cc1cc(Cl)ccc1O` (stereo unspecified), inhibition was half-maximal at 12.3 µM (IC50).
For the compound `CCc1ccc(CN(CCO)Cc2nccn2C)nc1`, the IC50 is > 50.1 µM.
As to `CC(C)(C)OC(=O)NCC1CC(C(N)=O)=NO1` (stereo unspecified), the IC50 is > 50.1 µM.
The same measure, in the same setting: as for `CS(=O)(=O)N1CCOCC2(CCN(c3ccccn3)C2)C1` (stereo unspecified), the figure is > 50.1 µM.
For `O=C(c1ccc(-c2ccc(O)nc2)s1)N1CCCCCC1`, the IC50 was > 50.1 µM.
On to `C1CC(C2CNC2)CCO1`, for which the IC50 is > 50.1 µM.
Consider `CN(C)[C@H]1CCCCN(C(=O)Cn2cc(Cl)cn2)C1`, for which the IC50 was > 50.1 µM.
The same measure, in the same setting: as for `COC[C@@H]1CCC[C@@]12CN(Cc1ccc(C)s1)CCO2`, the figure is > 50.1 µM; as for `CN1CCCN(C(=O)COc2ccc(Br)cc2)CC1`, > 50.1 µM; as for `Cn1cc(N2CC3(CCN(Cc4nccs4)CC3)OCC2=O)cn1`, > 50.1 µM.
Compound `N#Cc1c(Cl)nsc1NCc1cccnc1OC1CCCC1` showed a pIC50 of 5.095 and an IC50 of 6.71 µM.
In the same order, the values of `Cc1c(-c2cc(C(F)(F)F)nc(N3CCC(N)CC3)n2)cnn1C` are 5.176 and 4.18 µM.
Consider `CC(C)(C(=O)N1CCC(N)CC1)c1cccc(F)c1`, for which the IC50 was > 50.1 µM.
In turn, `Cc1cccc(OCc2ccc(C(=O)N3N=CCC3(O)C(F)(F)F)o2)c1` (stereo unspecified) gave a pIC50 of 5.353 and an IC50 of 3.87 µM.
With `CC(C)C(=O)N1CCN(c2ncnc3cc4c(cc23)OCCO4)CC1`, the IC50 was > 50.1 µM.
As for `N[C@@H]1CC[C@H](C(=O)NCc2csc(N3CCCC3)n2)C1`, the IC50 is > 50.1 µM.
As to `COCc1ccccc1C(=O)N1CCCC(O)C1` (stereo unspecified), the IC50 was > 50.1 µM.
Regarding `CCc1noc(CC)c1CNC(=O)Nc1ncnn1C`, the IC50 was > 50.1 µM.
`COCc1nnc(-c2cccc(C(=O)N(C)CC(C)(C)C)c2)o1`: the half-inhibitory concentration (IC50) was > 50.1 µM.
On to `COCC(=O)N1C[C@@H](OCc2ccncc2)[C@@H]2OCCC[C@@H]21`, for which the half-maximal inhibitory concentration (IC50) is > 50.1 µM.
Regarding `O=C1COC2(CCN(S(=O)(=O)C3CC3)CC2)CN1c1cccnc1`, the IC50 was > 50.1 µM.
On to `COc1ccc(CC(=O)NCC2CCCNC2)cc1F` (stereo unspecified), for which the IC50 is > 50.1 µM.
In the case of `NC1CCN(C(=O)Nc2ccccc2)C1` (stereo unspecified), the IC50 is > 50.1 µM.
